Key:
Format in all cases: functional
Conditions in all cases: read-out: ID50 (the source's name)
NCI-H226 = assay: Inhibitory dose required against H226 human tumor cell lines
EVSA-T = assay: Inhibitory dose required against EVSA-T human tumor cell lines
IGROV-1 = assay: Inhibitory dose required against IGROV human tumor cell lines
WiDr = assay: Inhibitory dose required against WIDR human tumor cell lines
A498 = assay: Inhibitory dose required against A498 human tumor cell lines
M19-MEL = assay: Inhibitory dose required against M19 human tumor cell lines
MCF7 = assay: Inhibitory dose required against MCF-7 human tumor cell lines

SMILES	IC50 (NCI-H226)	IC50 (EVSA-T)	IC50 (IGROV-1)	IC50 (WiDr)	IC50 (A498)	IC50 (M19-MEL)	IC50 (MCF7)
CC[C@@]1(OC(=O)OCc2ccc(NC(=O)[C@H](CCCCN)NC(=O)[C@H](Cc3ccccc3)NC(=O)[C@@H](C)N)cc2)C(=O)OCc2c1cc1n(c2=O)Cc2cc3c(N)cccc3nc2-1.Cl.Cl.Cl	0.021 µg/mL	0.137 µg/mL	0.008 µg/mL	0.007 µg/mL	0.039 µg/mL	0.01 µg/mL	0.019 µg/mL
CC[C@@]1(O)C(=O)OCc2c1cc1n(c2=O)Cc2cc3ccccc3nc2-1 [CAMPTOTHECIN]	< 0.005 µg/mL	< 0.0032 µg/mL	< 0.0032 µg/mL	< 0.0032 µg/mL	< 0.0032 µg/mL	< 0.013 µg/mL	< 0.0032 µg/mL
CC[C@@]1(O)C(=O)OCc2c1cc1n(c2=O)Cc2cc3c(N)cccc3nc2-1 [9-AMINOCAMPTOTHECIN]	< 0.007 µg/mL	< 0.0032 µg/mL	< 0.0032 µg/mL	< 0.0032 µg/mL	< 0.01 µg/mL	< 0.024 µg/mL	< 0.0032 µg/mL
CC[C@@]1(OC(=O)OCc2ccc(NC(=O)[C@H](CCCCN)NC(=O)[C@H](Cc3ccccc3)NC(=O)[C@@H](C)N)cc2)C(=O)OCc2c1cc1n(c2=O)Cc2cc3ccccc3nc2-1.Cl.Cl	0.111 µg/mL	0.049 µg/mL	0.02 µg/mL	0.022 µg/mL	0.022 µg/mL	0.219 µg/mL	0.01 µg/mL
